Test [1] deals with BChE derived from purified human plasma (Homo sapiens, UniProt P06276). The test can be described thus: biochemical. Conditions: 0.1 M phosphate buffer pH 7.4, 25 °C, ATCh substrate.
The target of another test is recombinant human AChE (Homo sapiens, UniProt P22303). The test can be described thus: biochemical. The class given is biochemical. Particulars: for IC50: 0.1 M phosphate buffer pH 7.4, 25 °C, ATCh substrate, read-out: Inhibition of human AChE, IC50 ± SEM.
The test system of a further test is AChE. The arrangement: method as in doi:10.1016/j.molstruc.2018.05.027, doi:10.3906/kim-1903-74. Conditions: photoproducts of Figure 1; read-out: AChE inhibition IC50; cited from earlier work.
Test [2] relates to BChE. The class given is biochemical. Particulars: compared to huperzine A.
For test [3], the system named is BChE. The arrangement: method as in doi:10.1016/j.molstruc.2018.05.027, doi:10.3906/kim-1903-74. Conditions: photoproducts of Figure 1; read-out: BChE inhibition IC50; cited from earlier work.
The mark [4] stands for this setting: Table 1, benzobicyclo[3.2.1]octadiene benzylamines, read-out: Inhibition of BChE, IC50 ± SEM.
Setting [5] is: Table 2, oximes and oxime ethers, read-out: Inhibition of BChE, IC50 ± SEM.
The mark [6] stands for this setting: Table 4, acylated furo-benzobicyclo[3.2.1]octenes/octadienes.
[7] abbreviates: Table 4, acylated furo-benzobicyclo[3.2.1]octenes/octadienes, read-out: Inhibition of human BChE, IC50 ± SEM.
The mark [8] stands for this setting: Table 3, epoxides, alcohols and ethers.
Where [9] appears, read: Table 3, epoxides, alcohols and ethers, read-out: Inhibition of human BChE, IC50 ± SEM.

SMILES strings stand for the structures. Like-named read-outs stand apart in the source and are kept apart here. Some results are limits rather than exact numbers.

Sequence of BChE derived from purified human plasma (P06276 29-602): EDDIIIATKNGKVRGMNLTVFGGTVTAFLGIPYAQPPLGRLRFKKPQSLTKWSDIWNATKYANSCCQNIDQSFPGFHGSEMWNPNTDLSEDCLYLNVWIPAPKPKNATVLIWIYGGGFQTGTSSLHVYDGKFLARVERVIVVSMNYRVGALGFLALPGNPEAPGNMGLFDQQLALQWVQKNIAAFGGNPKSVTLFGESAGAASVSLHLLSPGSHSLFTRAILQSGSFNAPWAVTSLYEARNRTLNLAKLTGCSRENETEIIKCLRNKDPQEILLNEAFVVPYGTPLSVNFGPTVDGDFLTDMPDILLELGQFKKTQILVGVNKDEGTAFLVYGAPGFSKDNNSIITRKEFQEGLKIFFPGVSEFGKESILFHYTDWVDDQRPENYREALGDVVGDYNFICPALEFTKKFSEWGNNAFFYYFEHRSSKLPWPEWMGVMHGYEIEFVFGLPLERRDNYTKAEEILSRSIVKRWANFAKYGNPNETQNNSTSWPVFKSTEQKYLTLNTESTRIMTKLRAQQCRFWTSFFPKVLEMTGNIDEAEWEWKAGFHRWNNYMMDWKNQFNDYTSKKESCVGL
Sequence of recombinant human AChE (P22303 32-614): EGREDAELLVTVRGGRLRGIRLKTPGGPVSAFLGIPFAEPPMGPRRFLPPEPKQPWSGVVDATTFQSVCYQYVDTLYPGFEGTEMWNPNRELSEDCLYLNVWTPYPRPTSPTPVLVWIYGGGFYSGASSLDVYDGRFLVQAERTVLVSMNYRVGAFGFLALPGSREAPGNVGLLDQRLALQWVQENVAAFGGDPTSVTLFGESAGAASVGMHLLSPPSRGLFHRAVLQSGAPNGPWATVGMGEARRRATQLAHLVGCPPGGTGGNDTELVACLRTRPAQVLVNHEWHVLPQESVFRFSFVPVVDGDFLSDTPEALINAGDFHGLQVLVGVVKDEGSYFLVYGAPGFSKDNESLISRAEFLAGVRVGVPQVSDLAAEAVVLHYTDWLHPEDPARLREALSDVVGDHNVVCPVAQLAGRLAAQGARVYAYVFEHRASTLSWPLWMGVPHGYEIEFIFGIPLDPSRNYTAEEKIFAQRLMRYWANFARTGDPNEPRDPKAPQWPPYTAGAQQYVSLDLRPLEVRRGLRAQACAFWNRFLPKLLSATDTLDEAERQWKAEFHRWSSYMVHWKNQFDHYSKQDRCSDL

The term IC50 denotes the concentration needed to halve the response being measured. Consider `Clc1ccc(C2=CCC3CC2c2ccccc23)cc1` (stereo not drawn) [Compound 1], for which the IC50 in test [1] (setting [4]) worked out at 260 ± 120 µM.

For `Cc1ccccc1CNc1ccc(C2=CCC3CC2c2ccccc23)cc1` (stereo not drawn) [Compound 9], the IC50 in test [1] (setting [4]) came to 240 ± 210 µM.

Turning to `COc1ccc(CNc2ccc(C3=CCC4CC3c3ccccc34)cc2)cc1` (stereo not drawn) [Compound 17], the IC50 in test [1] (setting [4]) is 120 ± 64 µM.

Take `Nc1ccc(C2=CCC3CC2c2ccccc23)cc1` (stereo not drawn) [Compound 20]: the IC50 in test [1] (setting [4]) amounted to 182 ± 98 µM.

In the case of `CCO/N=C/c1cc2c(o1)CC1CC2c2ccccc21` (stereo not drawn) [Compound 26], the IC50 in test [1] (setting [5]) was found to be 380 ± 250 µM.

As for `CCCO/N=C\c1cc2c(o1)CC1CC2c2ccccc21` (stereo not drawn) [Compound 27, (Z)-9,10-Dihydro-4H-4,9-methanobenzo[4,5]cyclohepta[1,2-b]furan-2-carbaldehyde O-propyl oxime], the IC50 in test [1] (setting [5]) was found to be 74 ± 19 µM.

As for `CC(C)O/N=C/c1cc2c(o1)CC1CC2c2ccccc21` (stereo not drawn) [Compound 28], the half-maximal inhibitory concentration (IC50) in test [1] (setting [5]) amounted to 24 ± 3 µM.

`C=CCO/N=C/c1cc2c(o1)CC1CC2c2ccccc21` (stereo not drawn) [Compound 29]: the IC50 in test [1] (setting [5]) stood at 100 ± 32 µM.

In the case of `CC(=O)O/N=C/c1cc2c(o1)CC1CC2c2ccccc21` (stereo not drawn) [Compound 30], the IC50 in test [1] (setting [5]) stood at 61 ± 36 µM.

As for `CC(C)O/N=C/C/C=C1\C(O)=CC2CC1c1ccccc12` (stereo not drawn) [Compound 31], in test [1] (setting [5]), the IC50 turned out to be 90 ± 40 µM.

In the case of `CC(C)O/N=C/C/C=C1\C(O)CC2CC1c1ccccc12` (stereo not drawn) [Compound 32], the IC50 in test [1] (setting [5]) came to 31 ± 4 µM.

For `C=CCCO/N=C/C(=O)/C=C1\C=CC2CC1c1ccccc12` (stereo not drawn) [Compound 33], in test [1] (setting [5]), the IC50 is 140 ± 49 µM.

For `CC(=O)O/N=C/C/C=C1\C(O)CC2CC1c1ccccc12` (stereo not drawn) [Compound 34], the IC50 in test [1] (setting [5]) amounted to 78 ± 31 µM.

Turning to `O=C1CC2CC(/C1=C/C/C=N/OCCCCl)c1ccccc12` (stereo not drawn) [Compound 35], the IC50 in test [1] (setting [5]) worked out at 60 ± 11 µM.

In the case of `C/C(O)=C/C=C1\C(O)CC2CC1c1ccccc12` [Compound 51, (5R,9R,Z)-6-((Z)-3-Hydroxybut-2-ene-1-ilydene)-6,7,8,9-tetrahydro-5H-5,9-methano-benzo[7]annulen-7-ol], the IC50 on recombinant human AChE (setting [6]) is 8.3 ± 4 µM; in test [1] (setting [7]), greater than 300 µM.

For `CCC(=O)C/C=C1\C(O)=CC2CC1c1ccccc12` [Compound 53, (Z)-1-((5R,9R)-7-Hydroxy-5,9-dihydro-6H-5,9-methanobenzo[7]annulen-6-ilydene)-pentan-3-one], the half-inhibitory concentration (IC50) at recombinant human AChE (setting [6]) amounted to 188 ± 133 µM; in test [1] (setting [7]) it was 146 ± 30 µM.

In the case of `Clc1ccc(C2C=CC3CC2c2ccccc23)cc1` (stereo not drawn) [endo-1, 11-(4-Chlorophenyl)tricyclo[6.3.1.0^²,7]dodeca-2,4,6,9-tetraene], the IC50 with AChE was 17.5 µM.

As to `C1=CC(c2ccncc2)C2CC1c1ccccc12` (stereo not drawn) [endo-2], the “Potency as BChE inhibitor in comparison to huperzine A” value with BChE [2] is recorded as “about five times more potent”. Moreover, the IC50 with BChE [3] is 8.8 µM.

Take `C1=C[C@H](c2ccc(NCc3ccccc3)cc2)[C@H]2C[C@@H]1c1ccccc12` [endo-4, N-Benzyl-4-((5R,6S,9S)-6,9-dihydro-5H-5,9-methanobenzo[7]annulen-6-yl)aniline]: the IC50 in test [1] (setting [4]) came out at 110 ± 77 µM.

Take `C1=C[C@H](c2ccc(NCc3ccco3)cc2)[C@H]2C[C@@H]1c1ccccc12` [endo-7, 4-((5R,6S,9S)-6,9-Dihydro-5H-5,9-methanobenzo[7]annulen-6-yl)-N-(fur-2-ylmethyl)aniline]: in test [1] (setting [4]), the IC50 was no less than 500 µM.

For the compound `C1=C[C@H](c2ccc(NCc3cccs3)cc2)[C@H]2C[C@@H]1c1ccccc12` [endo-8, 4-((5R,6S,9S)-6,9-dihydro-5H-5,9-methanobenzo[7]annulen-6-yl)-N-(thien-2-ylmethyl)aniline], the IC50 in test [1] (setting [4]) was greater than 500 µM.

Consider `Cc1ccccc1CNc1ccc(C2C=CC3CC2c2ccccc23)cc1` (stereo not drawn) [endo-9], for which the IC50 in test [1] (setting [4]) was greater than 500 µM.

As to `Cc1cccc(CNc2ccc(C3C=CC4CC3c3ccccc34)cc2)c1` (stereo not drawn) [endo-10], the IC50 in test [1] (setting [4]) was 63 ± 13 µM.

With `Cc1ccc(CNc2ccc(C3C=CC4CC3c3ccccc34)cc2)cc1` (stereo not drawn) [endo-11], in test [1] (setting [4]), the 50% inhibitory concentration (IC50) was no less than 500 µM.

Take `Clc1cccc(CNc2ccc(C3C=CC4CC3c3ccccc34)cc2)c1` (stereo not drawn) [endo-13]: the IC50 in test [1] (setting [4]) was greater than 500 µM.

As to `Clc1ccc(CNc2ccc(C3C=CC4CC3c3ccccc34)cc2)cc1` (stereo not drawn) [endo-14], in test [1] (setting [4]), the half-inhibitory concentration (IC50) is greater than 500 µM.

`COc1ccccc1CNc1ccc(C2C=CC3CC2c2ccccc23)cc1` (stereo not drawn) [endo-15]: in test [1] (setting [4]), the half-inhibitory concentration (IC50) was greater than 500 µM.

Consider `COc1cccc(CNc2ccc(C3C=CC4CC3c3ccccc34)cc2)c1` (stereo not drawn) [endo-16], for which the 50% inhibitory concentration (IC50) in test [1] (setting [4]) is greater than 500 µM.

Consider `COc1ccc(CNc2ccc(C3C=CC4CC3c3ccccc34)cc2)cc1` (stereo not drawn) [endo-17], for which, in test [1] (setting [4]), the IC50 was greater than 500 µM.

`Fc1ccccc1CNc1ccc(C2C=CC3CC2c2ccccc23)cc1` (stereo not drawn) [endo-18]: the IC50 in test [1] (setting [4]) was greater than 500 µM.

In the case of `Fc1cccc(CNc2ccc(C3C=CC4CC3c3ccccc34)cc2)c1` (stereo not drawn) [endo-19], the IC50 in test [1] (setting [4]) is greater than 500 µM.

Consider `Fc1ccc(CNc2ccc(C3C=CC4CC3c3ccccc34)cc2)cc1` (stereo not drawn) [endo-20], for which the IC50 in test [1] (setting [4]) is greater than 500 µM.

Regarding `c1ccc([C@H]2C3OC3[C@@H]3C[C@H]2c2ccccc23)cc1` (stereo partly drawn) [endo-38, (2R,7R,8S)-8-Phenyl-1a,7,8,8a-tetrahydro-2H-2,7-methanobenzo[4,5]cyclohepta[1,2-b]-oxirene], the “Potency for AChE relative to BChE (fold lower)” value at recombinant human AChE (AChE versus BChE) was found to be 3 fold. The values for the IC50 (on recombinant human AChE (setting [8]); in test [1] (setting [9])) were 62 ± 8 µM and 22 ± 5 µM, respectively.

As for `COc1ccc([C@H]2[C@@H]3OC3[C@@H]3C[C@H]2c2ccccc23)cc1` (stereo partly drawn) [endo-39, (2R,7R,8S,8as)-8-(4-Methoxyphenyl)-1a,7,8,8a-tetrahydro-2H-2,7-methanobenzo[4,5]cyclohepta[1,2-b]oxirene], the concentration for half-maximal inhibition (IC50) on recombinant human AChE (setting [8]) is greater than 100 µM; in test [1] (setting [9]), 33 ± 6 µM.

Consider `CCCOC1C[C@@H]2C[C@@H](c3ccccc32)[C@H]1c1ccccc1` (stereo partly drawn) [endo-43, (5R,6S,9S)-6-Phenyl-7-propoxy-6,7,8,9-tetrahydro-5H-5,9-methanobenzo[7]annulene], for which the IC50 on recombinant human AChE (setting [8]) is greater than 100 µM; in test [1] (setting [9]) it was 17 ± 2 µM.

On to `OCCCOC1CC2CC(c3ccccc32)C1c1ccccc1` [endo-45, 3-(((5R,6S,9S)-6-Phenyl-6,7,8,9-tetrahydro-5H-5,9-methanobenzo[7]annulen-7-il)oxy)propan-1-ol], for which the IC50 on recombinant human AChE (setting [8]) was greater than 100 µM; in test [1] (setting [9]) it was 90 ± 24 µM.

Consider `CCOC1C[C@@H]2C[C@@H](c3ccccc32)[C@H]1c1ccc(OC)cc1` (stereo partly drawn) [endo-46, (5R,6S,9S)-7-Ethoxy-6-(4-methoxyphenyl)-6,7,8,9-tetrahydro-5H-5,9-methanobenzo-[7]annulene], for which the IC50 at recombinant human AChE (setting [8]) is 270 ± 110 µM; in test [1] (setting [9]) it was greater than 500 µM.

Consider `CCCOC1C[C@@H]2C[C@@H](c3ccccc32)[C@H]1c1ccc(OC)cc1` (stereo partly drawn) [endo-47, (5R,6S,9S)-6-(4-Methoxyphenyl)-7-propoxy-6,7,8,9-tetrahydro-5H-5,9-methanobenzo[7]annulene], for which the IC50 at recombinant human AChE (setting [8]) was greater than 100 µM; in test [1] (setting [9]), greater than 200 µM.

(Values after article PMC7659976, “Benzobicyclo[3.2.1]octene Derivatives as a New Class of Cholinesterase Inhibitors” (Molecules, 2020).)
